These results are taken from US20060171935A1, “Protecting cell therapy for neurological disorders including Parkinson's disease” (priority 2005, published 2006).

One data set has as its system DJ-1 deficient ES cells. It counts as cell-based.
Conditions: not given
As to the method:
DJ-1 has been hypothesized to function in the cellular response to oxidative stress. To investigate the role of DJ-1 in the oxidative stress response in vivo, DJ-1-deficient homozygous mutant (‘knockout’) cells and DJ-1 heterozygote (‘control’) ES cell clones were analyzed for cell viability in the context of increasing concentrations of H2O2. Heterozygous cells were used as controls because the ‘knockout’ subclones were derived from these. Cell viability was initially determined by MTT assay in triplicate (Fezoui et al. 2000). […] The increase in AV-positive cells implicated an apoptotic mechanism of cell death (FIG. 14F).
In Vivo Assays. ES cells plated in 96-well format (2.3×10^4 cells/well) were treated for 15 hours with H2O2 in ES media deficient in β-mercaptoethanol (Abeliovich et al. 2000). Cell viability (as a percent of untreated control) was determined by MTT assay in triplicate (Fezoui et al. 2000). Annexin V/Propidium Iodide (Molecular probes) staining was performed per the manufacturer's instructions. For dihydrorhodamine-123 staining (DHR, Molecular probes) (Walrand et al. 2003), cells were preincubated for 30 min with DHR (5 μM), washed with PBS, then treated with H2O2 in ES media deficient in β-mercaptoethanol for 15 min at 37° C. The FACS analysis was performed using a FACSTAR sorter (Becton Dickinson). Dopamine uptake assay was performed essentially as described (Farrer et al. 1998). Reported values represent specific uptake from which non-specific uptake, determined in the presence of mazindol, was subtracted, and normalized for protein content (BCA kit, Pierce).
`CC(=O)N[C@@H](CSC(=O)[C@]1([C@@H](O)C(C)C)NC(=O)[C@H](C)[C@@H]1O)C(=O)O` [lactacystin]: the “sensitivity of DJ-1 deficient cells to toxin relative to heterozygous cells” value is reported as “sensitized”.

Still in this data set, the particulars now being: 15 h exposure, MTT.
For `C[C@@H]1C[C@@H]([C@H](O)CC2CC(=O)NC(=O)C2)C(=O)[C@@H](C)C1` [cycloheximide], the “sensitivity of DJ-1 deficient cells to toxin relative to heterozygous cells” value was “did not observe altered sensitivity”.
Still for that read-out and setting: the entry for `[Cl][Cu][Cl]` [copper] is “sensitized”; for tunicamycin it is “did not observe altered sensitivity”.
As for `OO` [H2O2], the “sensitivity of DJ-1 deficient cells to toxin relative to heterozygous cells” value is on record as “significantly greater toxicity”.
The same measure, in the same setting: the entry for `CN[C@@H]1C[C@H]2O[C@@](C)([C@@H]1OC)n1c3ccccc3c3c4c(c5c6ccccc6n2c5c31)C(=O)NC4` [staurosporine] is “did not observe altered sensitivity”.
